Each structure is given as a SMILES string.

The experiment concerns RS4; 11 cell line. The experiment can be described thus: CellTiter-Glo Luminescent Cell Viability Assay, cell growth inhibition. Format: cell-based. The conditions noted are these: Homo sapiens, 96 h, 4 days. The procedure: Cell growth inhibitory activity of representative MDM2 protein degraders was determined using CellTiter-Glo® Luminescent Cell Viability Assay. Cells were seeded in 384-well white opaque cell culture plates at a density of 2,000 cells/well with serially diluted compounds and incubated at 37° C. in an atmosphere of 95% air and 5% CO2 for 4 days. Cell viability was determined using the CellTiter-Glo® Luminescent Cell Viability Assay Kit (Promega, Madison, WI) according to the manufacture's instruction. Briefly, a volume of CellTiter-Glo® Reagent equal to the volume of cell culture medium was added to each well, and then the plates were incubated at room temperature for 10-20 minutes. The luminescent signal was measured using a Tecan Infinite M1000 multimode microplate reader (Tecan, Morrisville, NC). The half maximal inhibitory concentration (IC50) was calculated using the GraphPad Prism 5 software (GraphPad Software, La Jolla, CA). Cpd. […] The structure of Cpd.
Background: Cellular ATP, detected with luciferase, serves as a proxy for viable cell number.
As usually defined, the IC50 is the concentration at which inhibition is half-maximal. In turn, `O=C1CCC(N2Cc3c(CCCOCCOCCNC(=O)c4ccc(NC(=O)[C@@H]5NC6(CCCCC6)[C@@]6(C(=O)Nc7cc(Cl)ccc76)[C@H]5c5cccc(Cl)c5F)cc4)cccc3C2=O)C(=O)N1` (stereo partly drawn) [Cpd. No. 35, (3′R,4'S,5′R)-6″-chloro-4′-(3-chloro-2-fluorophenyl)-N-(4-((2-(2-(3-(2-(2,6-dioxopiperidin-3-yl)-1-oxoisoindolin-4-yl)propoxy)ethoxy)ethyl)carbamoyl)phenyl)-2″-oxodispiro[cyclohexane-1,2′-pyrrolidine-3′,3″-indoline]-5′-carboxamide] showed a 50% inhibitory concentration (IC50) of 5.7 nM.

Take `O=C1CCC(N2C(=O)c3cccc(CCCOCCOCCNC(=O)c4ccc(NC(=O)[C@@H]5NC6(CCCCC6)[C@@]6(C(=O)Nc7cc(Cl)ccc76)[C@H]5c5cccc(Cl)c5F)cc4)c3C2=O)C(=O)N1` (stereo partly drawn) [Cpd. No. 36, (3′R,4'S,5′R)-6″-chloro-4′-(3-chloro-2-fluorophenyl)-N-(4-((2-(2-(3-(2-(2,6-dioxopiperidin-3-yl)-1,3-dioxoisoindolin-4-yl)propoxy)ethoxy)ethyl)carbamoyl)phenyl)-2″-oxodispiro[cyclohexane-1,2′-pyrrolidine-3′,3″-indoline]-5′-carboxamide]: half-maximal inhibition (IC50) was put at 37.4 nM.

`O=C1CCC(N2Cc3c(CCCOCCOCCOCCNC(=O)c4ccc(NC(=O)[C@@H]5NC6(CCCCC6)[C@@]6(C(=O)Nc7cc(Cl)ccc76)[C@H]5c5cccc(Cl)c5F)cc4)cccc3C2=O)C(=O)N1` (stereo partly drawn) [Cpd. No. 37, (3′R,4'S,5′R)-6″-chloro-4′-(3-chloro-2-fluorophenyl)-N-(4-((2-(2-(2-(3-(2-(2,6-dioxopiperidin-3-yl)-1-oxoisoindolin-4-yl)propoxy)ethoxy)ethoxy)ethyl)carbamoyl)phenyl)-2″-oxodispiro[cyclohexane-1,2′-pyrrolidine-3′,3″-indoline]-5′-carboxamide]: the IC50 stood at 3.8 nM.

`O=C1CCC(N2C(=O)c3cccc(CCCOCCOCCOCCNC(=O)c4ccc(NC(=O)[C@@H]5NC6(CCCCC6)[C@@]6(C(=O)Nc7cc(Cl)ccc76)[C@H]5c5cccc(Cl)c5F)cc4)c3C2=O)C(=O)N1` (stereo partly drawn) [Cpd. No. 38, (3′R,4'S,5′R)-6″-chloro-4′-(3-chloro-2-fluorophenyl)-N-(4-((2-(2-(2-(3-(2-(2,6-dioxopiperidin-3-yl)-1,3-dioxoisoindolin-4-yl)propoxy)ethoxy)ethoxy)ethyl)carbamoyl)phenyl)-2″-oxodispiro[cyclohexane-1,2′-pyrrolidine-3′,3″-indoline]-5′-carboxamide] displayed an IC50 of 46 nM.

In turn, `O=C1CCC(N2Cc3c(NCc4cn(CCCNC(=O)c5ccc(NC(=O)[C@@H]6NC7(CCCCC7)[C@@]7(C(=O)Nc8cc(Cl)ccc87)[C@H]6c6cccc(Cl)c6F)cc5)cn4)cccc3C2=O)C(=O)N1` (stereo partly drawn) [Cpd. No. 39, (3′R,4'S,5′R)-6″-chloro-4′-(3-chloro-2-fluorophenyl)-N-(4-((3-(4-(((2-(2,6-dioxopiperidin-3-yl)-1-oxoisoindolin-4-yl)amino)methyl)-1H-imidazol-1-yl)propyl)carbamoyl)phenyl)-2″-oxodispiro[cyclohexane-1,2′-pyrrolidine-3′,3″-indoline]-5′-carboxamide] returned an IC50 of 1.5 nM.

In turn, `CCN1[C@@H](C(=O)NC23CCC(C(=O)NCCOCCOCCNC(=O)COc4cccc5c4C(=O)N(C4CCC(=O)NC4=O)C5=O)(CC2)CC3)[C@H](c2cccc(Cl)c2F)[C@]2(C(=O)Nc3cc(Cl)ccc32)C12CCCCC2` (stereo partly drawn) [Cpd. No. 45, (3′R,4'S,5′R)-6″-chloro-4′-(3-chloro-2-fluorophenyl)-N-(4-((2-(2-(2-(2-((2-(2,6-dioxopiperidin-3-yl)-1,3-dioxoisoindolin-4-yl)oxy)acetamido)ethoxy)ethoxy)ethyl)carbamoyl)bicyclo[2.2.2]octan-1-yl)-1′-ethyl-2″-oxodispiro[cyclohexane-1,2′-pyrrolidine-3′,3″-indoline]-5′-carboxamide] gave an IC50 of 35 nM.

Consider `CC1(C)CCC2(CC1)N[C@@H](C(=O)Nc1ccc(C(=O)NCCOCCOCCNc3cccc4c3C(=O)N(C3CCC(=O)NC3=O)C4=O)cc1)[C@H](c1cccc(Cl)c1F)[C@]21C(=O)Nc2cc(Cl)ccc21` (stereo partly drawn) [Cpd. No. 52, (3′R,4'S,5′R)-6″-chloro-4′-(3-chloro-2-fluorophenyl)-N-(4-((2-(2-(2-((2-(2,6-dioxopiperidin-3-yl)-1,3-dioxoisoindolin-4-yl)amino)ethoxy)ethoxy)ethyl)carbamoyl)phenyl)-4,4-dimethyl-2″-oxodispiro[cyclohexane-1,2′-pyrrolidine-3′,3″-indoline]-5′-carboxamide], for which half-maximal inhibition (IC50) was put at 1.5 nM.

In turn, `CC1(C)CCC2(CC1)N[C@@H](C(=O)Nc1ccc(C(=O)NCCCOCCOCCOCCCNc3cccc4c3C(=O)N(C3CCC(=O)NC3=O)C4=O)cc1)[C@H](c1cccc(Cl)c1F)[C@]21C(=O)Nc2cc(Cl)ccc21` (stereo partly drawn) [Cpd. No. 53, (3′R,4'S,5′R)-6″-chloro-4′-(3-chloro-2-fluorophenyl)-N-(4-((3-(2-(2-(3-((2-(2,6-dioxopiperidin-3-yl)-1,3-dioxoisoindolin-4-yl)amino)propoxy)ethoxy)ethoxy)propyl)carbamoyl)phenyl)-4,4-dimethyl-2″-oxodispiro[cyclohexane-1,2′-pyrrolidine-3′,3″-indoline]-5′-carboxamide] yielded an IC50 of 5.2 nM.

Regarding `COc1cc(C(=O)NCCOCCOCCNc2cccc3c2C(=O)N(C2CCC(=O)NC2=O)C3=O)ccc1NC(=O)[C@@H]1N[C@@H](CC(C)(C)C)[C@](C#N)(c2ccc(Cl)cc2F)[C@H]1c1cccc(Cl)c1F` (stereo partly drawn) [Cpd. No. 57, (2R,3S,4R,5S)-3-(3-chloro-2-fluorophenyl)-4-(4-chloro-2-fluorophenyl)-4-cyano-N-(4-((2-(2-(2-((2-(2,6-dioxopiperidin-3-yl)-1,3-dioxoisoindolin-4-yl)amino)ethoxy)ethoxy)ethyl)carbamoyl)-2-methoxyphenyl)-5-neopentylpyrrolidine-2-carboxamide], the IC50 was determined as 13 nM.

Take `COc1cc(C(=O)NCCCOCCOCCOCCCNc2cccc3c2C(=O)N(C2CCC(=O)NC2=O)C3=O)ccc1NC(=O)[C@@H]1N[C@@H](CC(C)(C)C)[C@](C#N)(c2ccc(Cl)cc2F)[C@H]1c1cccc(Cl)c1F` (stereo partly drawn) [Cpd. No. 58, (2R,3S,4R,5S)-3-(3-chloro-2-fluorophenyl)-4-(4-chloro-2-fluorophenyl)-4-cyano-N-(4-((3-(2-(2-(3-((2-(2,6-dioxopiperidin-3-yl)-1,3-dioxoisoindolin-4-yl)amino)propoxy)ethoxy)ethoxy)propyl)carbamoyl)-2-methoxyphenyl)-5-neopentylpyrrolidine-2-carboxamide]: the IC50 is 14 nM.

For `CC(C)[C@@H](CS(=O)(=O)C(C)C)N1C(=O)[C@@](C)(CC(=O)NCCOCCOCCNc2cccc3c2C(=O)N(C2CCC(=O)NC2=O)C3=O)C[C@H](c2cccc(Cl)c2)[C@H]1c1ccc(Cl)cc1` (stereo partly drawn) [Cpd. No. 60, 2-((3R,5R,6S)-5-(3-chlorophenyl)-6-(4-chlorophenyl)-1-((S)-1-(isopropylsulfonyl)-3-methylbutan-2-yl)-3-methyl-2-oxopiperidin-3-yl)-N-(2-(2-(2-((2-(2,6-dioxopiperidin-3-yl)-1,3-dioxoisoindolin-4-yl)amino)ethoxy)ethoxy)ethyl)acetamide], the IC50 came to 404 nM.

The values above are taken from patent US12637473B2, “MDM2 protein degraders” (THE REGENTS OF THE UNIVERSITY OF MICHIGAN, priority 2016, dated 2026).
